Test results published in patent US7276501B2, “6-(4-substituted-anilino)pyrimidine derivatives, method for preparation thereof and antiviral pharmaceutical composition comprising the same” (B & C Biopharm, priority 2002, dated 2007).

Biological target: T1, HCV RNA polymerase (RNA dependent RNA polymerase, NS5B) (Hepatitis C virus genotype 1b, UniProt P26663)
T1 construct: the NS5B region (1773 bps) was amplified by PCR and cloned into pVLHIS, a baculovirus transfer vector; (His)6; made in house; host or cells: Sf9 insect cells (recombinant baculovirus, pVLHIS-NS5B)
T1 sequence (P26663 2420-3010): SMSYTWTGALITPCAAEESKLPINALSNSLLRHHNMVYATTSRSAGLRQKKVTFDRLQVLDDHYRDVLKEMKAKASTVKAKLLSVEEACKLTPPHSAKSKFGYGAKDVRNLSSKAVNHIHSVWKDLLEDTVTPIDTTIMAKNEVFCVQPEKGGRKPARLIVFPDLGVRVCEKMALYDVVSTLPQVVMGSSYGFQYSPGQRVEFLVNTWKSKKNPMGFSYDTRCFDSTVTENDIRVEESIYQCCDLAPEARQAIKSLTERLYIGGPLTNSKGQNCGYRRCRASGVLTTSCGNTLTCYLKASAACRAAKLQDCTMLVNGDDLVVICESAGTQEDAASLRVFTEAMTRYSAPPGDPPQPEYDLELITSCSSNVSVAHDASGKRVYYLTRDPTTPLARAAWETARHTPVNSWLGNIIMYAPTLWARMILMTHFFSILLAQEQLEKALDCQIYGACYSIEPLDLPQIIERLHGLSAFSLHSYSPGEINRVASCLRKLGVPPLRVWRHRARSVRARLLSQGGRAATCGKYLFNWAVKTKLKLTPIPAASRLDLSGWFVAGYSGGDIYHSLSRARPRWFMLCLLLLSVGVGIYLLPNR
Experiment: Inhibitory effect on activity of recombinant HCV RNA polymerase (NS5B) in vitro
Type: biochemical, HCV-1b type HCV
Method: Test of Inhibitory Effect on Activity of HCV RNA Polymerase (RNA Dependent RNA Polymerase, NS5B) in vitro
The following in vitro experiments were conducted to examine the inhibitory effect of the compounds according to the present invention on the activity of HCV RNA dependent RNA Polymerase.
HCV cDNA was obtained from the blood of HCV-1b type HCV patient and the NS5B region (1773 bps) was amplified by PCR and cloned into pVLHIS, a baculovirus transfer vector, to prepare a recombinant transfer vector. The prepared transfer vector and the wild-type AcNPV vector were cotransfected into Sf9 insect cell line to yield a recombinant baculovirus containing the histidine-tagged recombinant vector pVLHIS-NS5B. Sufficiently cultured insect cells were infected with the resulting recombinant baculovirus and cultured in Grace's medium containing 10% FBS for 3 to 4 days. The culture broth was centriftiged to obtain only the infected cells. The cells were washed three times with PBS and resuspended in binding buffer [50 mM Na-phosphate (pH 8.0), 30 mM NaCl, 10 mM imidazole, 1 mM DTT, 10% glycerol, 1% NP40], sonicated and the clearized lysate was obtained. Recombinant NS5B was purified by affinity column chromatography using a Ni-NTA His bind resin (Novagen) to produce pure NS5B protein. The (His)6-tagged NS5B was bound to Ni-NTA resin and washed the binding buffer containing 50 mM imidazole. The bound NS5B was eluted with the binding buffer containing imidazole in a step-gradient manner (100-300 mM). The NS5B protein fractions were dialyzed against buffer [50 mM Tris-HCl, 50 mM NaCl, 1 mM DTT, […], 10% glycerol], followed by at −70° C. in a small aliquot.
The 3′UTR cDNA (220 bp) of HCV was obtained from 1b HCV RNA of the blood of a hepatitis C patient by PCR and cloned into pcDNA3 vector. Linearized DNA fragment containing the 3′-UTR was prepared using the restriction enzyme Eco RI and used as a template for in vitro transcription using T7 RNA ploymerase to prepare RNA fragment containing 3′-UTR.
In vitro inhibitory activity of the compounds of the present invention on recombinant HCV RNA polymerase was measured as follows.
A streptavidin-coated well plate was prepared suitable for the sample to be examined. 25 μl of 2× assay buffer [50 mM Tris-Cl (pH 7.5), 100 mM NaCl, 10 mM MgCl2, 20 mM KCl, 1 mM EDTA, 1 mM DTT] and 10 μl of purified HCV RNA polymerase 200 ng and 3′-UTR template RNA were added to each well. Then, 5 μl of the sample to be examined was added to have final concentrations of 10, 1, 0.1 and 0.01 μg/mL. Finally, 10 μl of a reactant solution containing DIG-(digoxigenin)-UTP, biotin-UTP, ATP, CTP, GTP, and UTP as a nucleotide for the ploymerase reaction with the RNA template of HCV 3′-UTR RNA was added to each well. The reaction mixture was incubated at 22° C. for 60 minutes. By the action of HCV polymerase, newly generated RNAs including UTP conjugated with biotin and DIG were copied and these new RNAs could bind to streptavidin coated on the well by biotin-conjugated UTP. After completion of the reaction, the plate was washed three times with 200 μl of a washing buffer (pH 7.0, Roche Co.) to remove unreacted substances and impurities. Then, 100 μl of the secondary antibody anti-DIG-POD (peroxidase, Roche Co.) was added to each well and incubated at 37° C. for 1 hour. Again, the well plate was washed with the washing buffer. Finally, 100 μl of ABTS^R (Roche Co.) as a POD substrate was added to each well and reacted for 15 to 30 minutes. The optical density (OD) was measured using an ELISA reader (Bio-Tek instrument Co.) at 405 nm. The inhibitory effect on the activity of HCV polymerase was calculated by subtracting the OD of the positive control without the sample.

SMILES	Inhibition of activity of HCV RNA polymerase (%) (0.01 μg/mL)	Inhibition of activity of HCV RNA polymerase (%) (0.1 μg/mL)	Inhibition of activity of HCV RNA polymerase (%) (1 μg/mL)	Inhibition of activity of HCV RNA polymerase (%) (10 μg/mL)
CSc1nc(Nc2ccc(N3CCOCC3)cc2)cc(N2CCN(C(=O)OC(C)C)CC2)n1 [Example 1, 2-methylthio-6-[4-(4-morpholino)anilino]-4-[4-(isopropoxycarbonyl)piperazin-1-yl]pyrimidine]	29	55	81	99
CSc1nc(Nc2ccc(N3CCOCC3)cc2)cc(N2CCN(C(=O)c3cccnc3)CC2)n1 [Example 2, 2-methylthio-6-[4-(4-morpholino)anilino]-4-[4-[(3-pyridyl)carbonyl]piperazin-1-yl]pyrimidine]	15	30	62	98
CSc1nc(Nc2ccc(N3CCOCC3)cc2)cc(N2CCN(C(=O)c3ccncc3)CC2)n1 [Example 3, 2-methylthio-6-[4-(4-morpholino)anilino]-4-[4-[(4-pyridyl)carbonyl]piperazin-1-yl]pyrimidine]	23	53	73	93
CSc1nc(Nc2ccc(N3CCOCC3)cc2)cc(N2CCN(CC(=O)O)CC2)n1 [Example 4, 2-methylthio-6-[4-(4-morpholino)anilino]-4-[4-(carboxymethyl)piperazin-1-yl]pyrimidine]	27	52	65	94
